Target: E. coli MenE (Escherichia coli, UniProt P37353)
Assay: MenE inhibition, coupled assay with MenE and MenB
Assay type: biochemical
Conditions: for Inhibition of MenE, result in words: inhibitor at up to 200 μM

E. coli MenE, sequence (P37353 whole entry): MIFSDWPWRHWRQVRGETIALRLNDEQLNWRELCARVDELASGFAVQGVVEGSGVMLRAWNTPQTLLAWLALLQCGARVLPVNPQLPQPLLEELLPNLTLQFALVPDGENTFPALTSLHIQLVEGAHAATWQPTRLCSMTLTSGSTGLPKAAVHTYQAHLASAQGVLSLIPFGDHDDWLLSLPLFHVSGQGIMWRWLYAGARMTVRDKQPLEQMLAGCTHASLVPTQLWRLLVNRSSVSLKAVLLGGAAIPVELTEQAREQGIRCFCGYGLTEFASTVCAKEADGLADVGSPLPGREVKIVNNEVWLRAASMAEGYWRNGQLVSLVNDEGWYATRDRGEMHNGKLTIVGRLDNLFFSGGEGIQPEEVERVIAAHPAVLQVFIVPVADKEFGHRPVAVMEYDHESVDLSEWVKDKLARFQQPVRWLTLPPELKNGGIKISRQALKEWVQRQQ

Row | Compound | Inhibition of MenE, result in words | Kinetic analysis of MenE inhibition (mode of binding)
1 | COC(=O)c1ccccc1C(=O)CCC(=O)NS(=O)(=O)OC[C@H]1O[C@@H](n2cnc3c(N)ncnc32)[C@H](O)[C@@H]1O [Compound 1, MeOSB-AMS] | effective inhibitors | 
2 | COC(=O)c1ccccc1C(=O)CCC(=O)NS(=O)(=O)NC[C@H]1O[C@@H](n2cnc3c(N)ncnc32)[C@H](O)[C@@H]1O [Compound 2, MeOSB-AMSN] | effective inhibitors | 
3 | COC(=O)c1ccccc1C(=O)CC/C=C/S(=O)(=O)NC[C@H]1O[C@@H](n2cnc3c(N)ncnc32)[C@H](O)[C@@H]1O [Compound 3, MeOSB-AVSN] |  | slow-binding inhibitor

Reference: article PMC2628629 (Bioorganic & medicinal chemistry letters, 2008)
